{"source": "patent US12447238B2", "about": "“Antimicrobial tubular conduits” (SANIDRINK S.R.L., priority 2020, dated 2025)", "key": {"[1]": {"test_system": "Aspergillus brasiliensis (ATCC 9341)", "type": "cell-based", "procedure": "The antifungal activity of the RiLK1 peptide was determined against Aspergillus brasiliensis. For this purpose, a stock culture was prepared in which 10^5 CFUs of A. brasiliensis were inoculated in 10 ml of buffered peptone water. A reference strain (ATCC 9341) was used for this fungal species. The culture was incubated for 6 h at 37° C. with the RiLK1 peptide at 25 μM concentrations.\nAt the same time, control samples were incubated without adding the peptide. 100 μl of the samples thus prepared were seeded on DG18 plates (Dichloran 18% Glycerol Agar—ISO 21527-2) and incubated at 25° C. for 7 days.\n(§1) All experimental conditions investigated used the plate count method to estimate the fungicidal activity of the peptide. Specifically, the numbers of colonies grown on agar plates seeded with the fungal suspensions in the absence or presence of the individual peptide dilutions were counted and compared. The standard deviations of the triplicate incubations of each plate were determined using statistical software. The evaluation of the Minimum Fungicidal Concentration (MFC), i.e., the lowest concentration of antifungal agent capable of 99.9% inhibition of fungal growth on plates, was carried out as described in Bilikova et al, (2015, Peptides 68:190-196)."}, "Listeria": {"test_system": "Listeria", "assay": "Bactericidal activity of AMP peptides at 15 μM (CFU vs control), Listeria", "type": "cell-based", "conditions": "peptide 15 μM", "procedure": "(§2) The bactericidal activity of further AMP peptides used in the invention, in particular of the RiLK31 peptide (RLRWVKIWKK, SEQ ID NO:31) and the RiLK3 peptide (RLRWVRIWRR, SEQ ID NO:3), was tested. The bactericidal activity was expressed as a percentage of viable cells in terms of CFU (Colony Forming Units) in a bacterial sample exposed to each peptide compared to those in a control bacterial sample in the absence of the peptide. All tests were carried out with the same peptide concentration, corresponding to 15 μM."}, "[2]": {"test_system": "L. monocytogenes (LM2) (field strain)", "assay": "IC50 by broth microdilution and plate count against L. monocytogenes", "type": "cell-based, Listeria monocytogenes", "conditions": "6 hours at 37° C. in Fraser Broth, plate count", "procedure": "(§3) The bactericidal activity of RiLK1 peptides was assessed against both Gram positive (Listeria monocytogenes LM2 and Staphylococcus aureus) and Gram negative (Salmonella typhimurium and Escherichia coli) pathogenic bacteria.\n(§4) The assessment of the concentration of RiLK1 peptides capable of inhibiting 50% of bacterial growth (IC50) was performed by the broth microdilution assay as described in Wang HX and Ng TB (2003, Peptides 24:969-972).\n(§5) Standard deviations were obtained from triplicate experiments for each peptide dilution, and the IC50s were determined using GraphPad Prism version 6.00 (Graph-Pad Software, La Jolla California USA).\n(§6) All bactericidal activity assays were performed using 2-3 log CFUs (Colony Forming Units), which represents a realistic approximation of the contamination levels that may be contained in the tubular conduits for food or medical use.\nAll experimental conditions investigated used the plate count method to estimate the bactericidal activity of the peptides. Specifically, the numbers of colonies grown on agar plates seeded with the bacterial suspensions in the absence or presence of the individual peptide dilutions were counted and compared. Standard deviations were determined using statistical software. […]"}, "Staphylococcus": {"test_system": "Staphylococcus", "assay": "Bactericidal activity of AMP peptides at 15 μM (CFU vs control), Staphylococcus", "type": "cell-based", "conditions": "peptide 15 μM", "procedure": "as §2"}, "Salmonella": {"test_system": "Salmonella", "assay": "Bactericidal activity of AMP peptides at 15 μM (CFU vs control), Salmonella", "type": "cell-based", "conditions": "peptide 15 μM", "procedure": "as §2"}, "E. coli": {"test_system": "E. coli", "assay": "Bactericidal activity of AMP peptides at 15 μM (CFU vs control), E. coli", "type": "cell-based", "conditions": "peptide 15 μM", "procedure": "as §2"}, "E. coli (ATCC) [3]": {"test_system": "E. coli (ATCC)", "type": "cell-based, Escherichia coli", "conditions": "6 h", "procedure": "as §3, §4, §5, §6\nAll experimental conditions investigated used the plate count method to estimate the bactericidal activity of the peptides. Specifically, the numbers of colonies grown on agar plates seeded with the bacterial suspensions in the absence or presence of the individual peptide dilutions were counted and compared. Standard deviations were determined using statistical software.\nA control stock suspension was prepared in which 10^3 CFUs of E. coli were inoculated in 10 ml of BPW (Oxoid, Basingstoke, UK). […]"}, "[4]": {"test_system": "Candida albicans (ATCC 14053)", "type": "cell-based", "procedure": "The inhibitory activity of the RiLK1 peptide was determined against the yeast Candida albicans. A stock culture was prepared in which 10^5 CFUs of C. albicans were inoculated in 10 ml of buffered peptone water. A reference strain (ATCC 14053) was used for this species. The culture was incubated for 6 h at 37° C. with the RiLK1 peptide at 25 μM concentrations. At the same time, control samples were incubated without adding the peptide. 100 μl of the samples thus prepared were seeded on DG18 plates (Dichloran 18% Glycerol Agar—ISO 21527-2) and incubated at 25° C. for 7 days.\nas §1, with “antimycotic” for “fungicidal”, “cultures” for “fungal suspensions”"}, "[5]": {"test_system": "L. monocytogenes (LM2) (field strain)", "assay": "Minimum Bactericidal Concentration (MBC) against L. monocytogenes", "type": "cell-based, Listeria monocytogenes", "conditions": "99.9% inhibition of bacterial growth on plates", "procedure": "(§7) The evaluation of the Minimum Bactericidal Concentration (MBC), i.e., the lowest concentration of antimicrobial agent capable of 99.9% inhibition of bacterial growth on plates, was carried out as described in Bilikova et al, (2015, Peptides 68:190-196)."}, "E. coli (ATCC) [6]": {"test_system": "E. coli (ATCC)", "assay": "Minimum Bactericidal Concentration (MBC) against E. coli", "type": "cell-based, Escherichia coli", "conditions": "99.9% inhibition of bacterial growth on plates", "procedure": "as §7"}}, "note": "Peptide text beside a SMILES is read from it."}
{"compound": "CC[C@H](C)[C@H](NC(=O)[C@H](CCCNC(=N)N)NC(=O)[C@@H](NC(=O)[C@H](Cc1c[nH]c2ccccc12)NC(=O)[C@H](CCCCN)NC(=O)[C@H](CC(C)C)NC(=O)[C@@H](N)CCCNC(=N)N)C(C)C)C(=O)N[C@@H](Cc1c[nH]c2ccccc12)C(=O)N[C@@H](CCCNC(=N)N)C(=O)N[C@@H](CCCNC(=N)N)C(N)=O", "note": "[RiLK1, RLKWVRIWRR] (H-RLKWVRIWRR-NH2; N-terminus assumed)", "values": [{"measurement": "post-treatment decrease in the fungal load", "setting": "[1]; A. brasiliensis, 25 μM peptide, 6 h at 37° C.", "value": 5, "unit": "Log"}, {"measurement": "Drop Log CFU/ml", "setting": "[1]; A. brasiliensis, 10^5 CFUs, 25 μM peptide, 6 h at 37° C.", "value": 5, "unit": "Log CFU/ml"}, {"measurement": "MFC", "setting": "[1]; ATCC 9341, 6 h", "value": "less than or equal to 25 μM"}, {"measurement": "bactericidal activity expressed as a percentage of viable cells (CFU) vs control", "setting": "Listeria", "value": 99.5, "unit": "%"}, {"measurement": "IC50", "setting": "[2]", "value": 460, "unit": "nM"}, {"measurement": "bactericidal activity expressed as a percentage of viable cells (CFU) vs control", "setting": "Staphylococcus", "value": 96.9, "unit": "%"}, {"measurement": "bactericidal activity expressed as a percentage of viable cells (CFU) vs control", "setting": "Salmonella", "value": 100, "unit": "%"}, {"measurement": "bactericidal activity expressed as a percentage of viable cells (CFU) vs control", "setting": "E. coli", "value": 100, "unit": "%"}, {"measurement": "IC50", "setting": "E. coli (ATCC) [3]", "value": 1200, "unit": "nM"}, {"measurement": "MFC", "setting": "[4]; ATCC 14053, 6 h", "value": "less than or equal to 25 μM"}, {"measurement": "post-treatment decrease in the fungal load", "setting": "[4]; C. albicans, 25 μM peptide, 6 h at 37° C.", "value": 5, "unit": "Log"}, {"measurement": "Drop Log CFU/ml", "setting": "[4]; C. albicans, 10^5 CFUs, 25 μM peptide, 6 h at 37° C.", "value": 5, "unit": "Log CFU/ml"}, {"measurement": "MBC", "setting": "[5]", "value": 2, "unit": "µM"}, {"measurement": "MBC", "setting": "E. coli (ATCC) [6]", "value": 2, "unit": "µM"}]}
{"compound": "RLRWVKIWKK (AMP) [RiLK31]", "values": [{"measurement": "bactericidal activity expressed as a percentage of viable cells (CFU) vs control", "setting": "Listeria", "value": 98.8, "unit": "%"}, {"measurement": "bactericidal activity expressed as a percentage of viable cells (CFU) vs control", "setting": "Staphylococcus", "value": 83, "unit": "%"}, {"measurement": "bactericidal activity expressed as a percentage of viable cells (CFU) vs control", "setting": "Salmonella", "value": 100, "unit": "%"}, {"measurement": "bactericidal activity expressed as a percentage of viable cells (CFU) vs control", "setting": "E. coli", "value": 100, "unit": "%"}]}
{"compound": "RLRWVRIWRR (AMP) [RiLK3]", "values": [{"measurement": "bactericidal activity expressed as a percentage of viable cells (CFU) vs control", "setting": "Listeria", "value": 99, "unit": "%"}, {"measurement": "bactericidal activity expressed as a percentage of viable cells (CFU) vs control", "setting": "Staphylococcus", "value": 96, "unit": "%"}, {"measurement": "bactericidal activity expressed as a percentage of viable cells (CFU) vs control", "setting": "Salmonella", "value": 100, "unit": "%"}, {"measurement": "bactericidal activity expressed as a percentage of viable cells (CFU) vs control", "setting": "E. coli", "value": 100, "unit": "%"}]}
